Reference: patent US11445724B2, “Insecticidal compounds” (SYNGENTA PARTICIPATIONS AG, priority 2013, dated 2022)

How the values were obtained:
Format in all cases: in vivo
[1] = test system: Diabrotica balteata (Corn root worm); test: Diabrotica balteata (Corn root worm) larval mortality, artificial diet in 24-well MTP; settings: 120 h, application rate 200 ppm (concentration in well 18 ppm), L2 larvae, larval mortality after 5 days
[2] = test system: Myzus persicae (Green peach aphid); test: Myzus persicae (Green peach aphid) mortality, sprayed sunflower leaf discs; settings: foliar, 144 h, 200 ppm spray on sunflower leaf discs, mixed ages, mortality 6 DAT
[3] = test system: Myzus persicae (Green peach aphid); test: Myzus persicae (Green peach aphid) mortality, test compounds mixed with Sucrose solution under Parafilm; settings: 120 h, 12.5 ppm in Sucrose solution, infested pea seedlings on Parafilm, mortality 5 days after infestation
[4] = test system: Plutella xylostella (Diamond back moth); test: Plutella xylostella (Diamond back moth) larval mortality, artificial diet in 24-well MTP; settings: 144 h, application rate 200 ppm (concentration in well 18 ppm), L2 larvae, larval mortality after 6 days
[5] = test system: Spodoptera littoralis (Egyptian cotton leafworm); test: Spodoptera littoralis (Egyptian cotton leafworm) mortality, sprayed cotton leaf discs; settings: foliar, 72 h, 200 ppm spray on cotton leaf discs, L1 larvae, mortality 3 DAT
[6] = test system: Thrips tabaci (Onion thrips); test: Thrips tabaci (Onion thrips) mortality, sprayed sunflower leaf discs; settings: foliar, 168 h, 200 ppm spray on sunflower leaf discs, mixed ages, mortality after 7 days
[7] = test system: Tetranychus urticae (Two-spotted spider mite); test: Tetranychus urticae (Two-spotted spider mite) mortality, sprayed bean leaf discs; settings: foliar, 192 h, 200 ppm spray on bean leaf discs, mixed ages, egg, larval and adult mortality after 8 days

COc1c(NC(=O)c2ccc(C)cc2)cccc1C(=O)Nc1c(Br)cc(C(F)(C(F)(F)F)C(F)(F)F)cc1OC(F)F [Compound 41]
≥ 80%: pest or weed control at 200 ppm [1] | pest or weed control at 200 ppm [2] | pest or weed control at 12.5 ppm [3] | pest or weed control at 200 ppm [4] | pest or weed control at 200 ppm [5] | pest or weed control at 200 ppm [6]

O=C(Nc1cccc(C(=O)Nc2c(Cl)cc(C(F)(C(F)(F)F)C(F)(F)F)cc2OC(F)F)c1F)c1ccccc1F [Compound 45]
≥ 80%: pest or weed control at 200 ppm [1] | pest or weed control at 200 ppm [2] | pest or weed control at 12.5 ppm [3] | pest or weed control at 200 ppm [4] | pest or weed control at 200 ppm [5] | pest or weed control at 200 ppm [6]

Cc1ccccc1C(=O)Nc1cccc(C(=O)Nc2c(Cl)cc(C(F)(C(F)(F)F)C(F)(F)F)cc2OC(F)F)c1F [Compound 46]
≥ 80%: pest or weed control at 200 ppm [1] | pest or weed control at 200 ppm [4] | pest or weed control at 200 ppm [5] | pest or weed control at 200 ppm [7] | pest or weed control at 200 ppm [6]

COc1c(NC(=O)c2ccccc2OC(F)(F)F)cccc1C(=O)Nc1c(Br)cc(C(F)(C(F)(F)F)C(F)(F)F)cc1OC(F)F [Compound 56]
≥ 80%: pest or weed control at 200 ppm [1] | pest or weed control at 200 ppm [2] | pest or weed control at 12.5 ppm [3] | pest or weed control at 200 ppm [4] | pest or weed control at 200 ppm [5] | pest or weed control at 200 ppm [6]

COc1c(NC(=O)c2ccccc2C)cccc1C(=O)Nc1c(Cl)cc(C(F)(C(F)(F)F)C(F)(F)F)cc1OC(F)F [Compound 77]
≥ 80%: pest or weed control at 200 ppm [1] | pest or weed control at 200 ppm [4] | pest or weed control at 200 ppm [5] | pest or weed control at 200 ppm [7] | pest or weed control at 200 ppm [6]

COc1c(NC(=O)c2ccc(OC(F)(F)F)cc2)cccc1C(=O)Nc1c(Cl)cc(C(F)(C(F)(F)F)C(F)(F)F)cc1OC(F)F [Compound 87]
≥ 80%: pest or weed control at 200 ppm [1] | pest or weed control at 200 ppm [4] | pest or weed control at 200 ppm [5] | pest or weed control at 200 ppm [7] | pest or weed control at 200 ppm [6]

CCN(C(=O)c1ccc(C(F)(F)F)cc1)c1cccc(C(=O)Nc2c(Br)cc(C(F)(C(F)(F)F)C(F)(F)F)cc2OC(F)F)c1F [Compound 105]
≥ 80%: pest or weed control at 200 ppm [1] | pest or weed control at 200 ppm [2] | pest or weed control at 12.5 ppm [3] | pest or weed control at 200 ppm [4] | pest or weed control at 200 ppm [5] | pest or weed control at 200 ppm [6]

CCN(C(=O)c1ccccc1F)c1cccc(C(=O)Nc2c(Cl)cc(C(F)(C(F)(F)F)C(F)(F)F)cc2OC(F)F)c1F [Compound 111]
≥ 80%: pest or weed control at 200 ppm [1] | pest or weed control at 200 ppm [2] | pest or weed control at 12.5 ppm [3] | pest or weed control at 200 ppm [4] | pest or weed control at 200 ppm [5] | pest or weed control at 200 ppm [6]

CCN(C(=O)c1cccc(F)c1F)c1cccc(C(=O)Nc2c(Cl)cc(C(F)(C(F)(F)F)C(F)(F)F)cc2OC(F)F)c1F [Compound 123]
≥ 80%: pest or weed control at 200 ppm [1] | pest or weed control at 200 ppm [2] | pest or weed control at 12.5 ppm [3] | pest or weed control at 200 ppm [4] | pest or weed control at 200 ppm [5] | pest or weed control at 200 ppm [6]

CCN(C(=O)c1ccccc1F)c1cccc(C(=O)Nc2c(Br)cc(C(F)(C(F)(F)F)C(F)(F)F)cc2OC(F)F)c1F [Compound 125]
≥ 80%: pest or weed control at 200 ppm [1] | pest or weed control at 200 ppm [2] | pest or weed control at 12.5 ppm [3] | pest or weed control at 200 ppm [4] | pest or weed control at 200 ppm [5] | pest or weed control at 200 ppm [6]

CCN(C(=O)c1ccccc1C)c1cccc(C(=O)Nc2c(Br)cc(C(F)(C(F)(F)F)C(F)(F)F)cc2OC(F)F)c1F [Compound 126]
≥ 80%: pest or weed control at 200 ppm [1] | pest or weed control at 12.5 ppm [3] | pest or weed control at 200 ppm [4] | pest or weed control at 200 ppm [5] | pest or weed control at 200 ppm [6]

CCN(C(=O)c1ccccc1F)c1cccc(C(=O)Nc2c(Br)cc(C(F)(C(F)(F)F)C(F)(F)F)cc2OC(F)F)c1OC [Compound 129]
≥ 80%: pest or weed control at 200 ppm [1] | pest or weed control at 200 ppm [4] | pest or weed control at 200 ppm [5] | pest or weed control at 200 ppm [7] | pest or weed control at 200 ppm [6]

CCN(C(=O)c1ccc(F)cc1C)c1cccc(C(=O)Nc2c(Br)cc(C(F)(C(F)(F)F)C(F)(F)F)cc2OC(F)F)c1OC [Compound 133]
≥ 80%: pest or weed control at 200 ppm [1] | pest or weed control at 200 ppm [4] | pest or weed control at 200 ppm [5] | pest or weed control at 200 ppm [7] | pest or weed control at 200 ppm [6]

CCN(C(=O)c1ccccc1)c1cccc(C(=O)Nc2c(Br)cc(C(F)(C(F)(F)F)C(F)(F)F)cc2OC(F)F)c1OC [Compound 138]
≥ 80%: pest or weed control at 200 ppm [1] | pest or weed control at 200 ppm [2] | pest or weed control at 12.5 ppm [3] | pest or weed control at 200 ppm [4] | pest or weed control at 200 ppm [5] | pest or weed control at 200 ppm [6]

CCN(C(=O)c1ccccc1)c1cccc(C(=O)Nc2c(Cl)cc(C(F)(C(F)(F)F)C(F)(F)F)cc2OC(F)F)c1OC [Compound 155]
≥ 80%: pest or weed control at 200 ppm [1] | pest or weed control at 200 ppm [2] | pest or weed control at 12.5 ppm [3] | pest or weed control at 200 ppm [4] | pest or weed control at 200 ppm [5] | pest or weed control at 200 ppm [6]

CCN(C(=O)c1cccc(F)c1F)c1cccc(C(=O)Nc2c(Cl)cc(C(F)(C(F)(F)F)C(F)(F)F)cc2OC(F)F)c1OC [Compound 159]
≥ 80%: pest or weed control at 200 ppm [1] | pest or weed control at 200 ppm [2] | pest or weed control at 12.5 ppm [3] | pest or weed control at 200 ppm [4] | pest or weed control at 200 ppm [5] | pest or weed control at 200 ppm [6]

CCN(C(=O)c1ccc(F)cc1F)c1cccc(C(=O)Nc2c(Cl)cc(C(F)(C(F)(F)F)C(F)(F)F)cc2OC(F)F)c1OC [Compound 160]
≥ 80%: pest or weed control at 200 ppm [1] | pest or weed control at 12.5 ppm [3] | pest or weed control at 200 ppm [4] | pest or weed control at 200 ppm [5] | pest or weed control at 200 ppm [6]
